Measured values published in patent US12582599B2, “Methods for treatment of bladder cancer with gemcitabine” (TARIS Biomedical LLC, priority 2014, dated 2026).

Legend:
[1] = minipig, in vivo
Protocol: Varying concentrations of gemcitabine were perfused into pigs for 7 days, N=5 (2 males and 3 females per treatment group). The perfusion animals were dosed at concentrations selected to bracket the target doses for bladder cancer in humans. For comparison, a gemcitabine releasing device (as shown in FIGS. 1A-1B) with large bore end caps (restraining plugs with a large aperture therethrough for drug release) with an intermediate in vitro release rate was deployed in a separate group of animals.

[2] = 14C gemcitabine bladder perfusion vs IV bolus, blood/urine/tissue content; type: in vivo, male Sprague Dawley rats
Protocol: A study was conducted on male Sprague Dawley rats administering ^14C gemcitabine by intra-urinary bladder cannula, over a 6- or 24-hour continuous perfusion, or by a single IV bolus. The 6- and 24-hour continuous perfusions perfused 6.9 and 26.6 mg, respectively, of gemcitabine into the bladder. The single IV bolus included 5.0 mg of gemcitabine. Blood (FIG. 8), urine, and tissue samples (e.g., bladder, prostate) (FIGS. 7 and 9) were collected and analyzed for gemcitabine content. The results are illustrated in FIGS. 7-9. […] The gemcitabine levels observed for each of the bladder epithelium, lamina propria, muscularis, and adventitia are shown in FIG. 14, which also illustrates a target effective range for the gemcitabine tissue concentration.

[3] = Gemcitabine release systems vs intravesical instillation in hounds; type: in vivo, large mixed breed hounds; conditions: intravesical instillation mimicking standard clinical doses
Protocol: Two gemcitabine release systems (devices as shown in FIGS. 1A-1B) designed to release therapeutic levels (4 mg/day and 40 mg/day) into the urine were screened. The devices used either laser-drilled orifices or punched orifices for release of the gemcitabine. The systems tested were compared to intravesical instillations which were designed to mimic the standard intravesical doses used clinically. The test animals were large mixed breed hounds, with N=3 for each group.
In vivo, one system yielded very low urine and tissue concentrations but was well tolerated by the test animal. The other system produced target urine concentration levels but was poorly tolerated by the test animal. Urine profiles were also variable and the duration of drug release was unacceptably short.

Structure (SMILES): Nc1ccn([C@@H]2O[C@H](CO)[C@@H](O)C2(F)F)c(=O)n1 [gemcitabine, 2′,2′-difluorodeoxycytidine]
- tolerability [1]: tolerated gemcitabine well
- gemcitabine levels in bladder tissue ([2]; 6- or 24-hour continuous bladder perfusion, sustained urine concentrations): at or exceed therapeutic concentrations
- concentration of gemcitabine in the bladder ([2]; 24 hours after a clinically relevant IV dose, compared with perfusion): significantly lower concentration
- plasma/systemic exposure ([2]; continuous delivery by intravesical administration): without significant plasma/systemic exposure
- urothelial lesions [3]: significant urothelial lesions
